Assay results: publication PMC6357863, “Dithiocarbamate-inspired side chain stapling chemistry for peptide drug design” (Chemical Science, 2018)
Like-named read-outs stand apart in the source and are kept apart here.

How the values were obtained:
[1] = Dithiocarbamate (DTC) stapling of unprotected peptides: Lys side-chain amine + CS2 (Et3N) gives Lys-NH-C(=S)S-, then intramolecular thia-Michael addition to dehydroalanine (Dha, made beforehand from Cys with 2,5-dibromohexanediamide and HPLC-purified); details: the molecule shown is the open-chain precursor, 21-membered ring, ethanol/Et3N/CS2 10:1:1 v/v
[2] = the molecule shown is the open-chain precursor; 21-membered ring
circular dichroism = details: phosphate buffer (PB); pH 7.2; 20 °C; 10-50 uM
[3] = Circular dichroism spectroscopy, helical content; type: physicochemical; details: CD, PB pH 7.2, 10-50 μM peptide, 20 °C
Procedure: Circular Dichroism (CD) Spectroscopy.
(§1) from 10-50 μM. […] The spectra were […]

HCT116 p53+/+ cells = assay: Cell viability assay (CCK8), HCT116 p53+/+; type: cell-based, human; details: concentrations of up to 50 μM, 8 h serum-free then 64 h with serum
Procedure: (§2) and three independent experiments were performed. […]
(§3) Tecan Infinite M1000 plate reader.
(§4) additional incubation for 64 hours. […]

HCT116 p53-/- cells = assay: Cell viability assay (CCK8), HCT116 p53-/-; type: cell-based, human; details: concentrations of up to 50 μM, 8 h serum-free then 64 h with serum
Procedure: as §2
(§5) As an additional positive control, we
as §3, §4

HCT116 cells = assay: Cellular uptake by confocal microscopy; type: cell-based, human; details: 20 μM peptide N-terminally conjugated to FITC via aminocaproic acid, HCT116 p53+/+ cells, 4 h, fixed, DAPI
Procedure: Although cationicity is not a universal molecular signature of cell-penetrating peptides, it plays a critical role in the ability of stapled peptides to traverse the cell membrane to exert biological activity.[10],[22],[28]
Cellular uptake of DTCPMI. A fluorescent FITC moiety was appended via an aminocaproic acid to the N- […]
and allowed to grow overnight. Cells were then incubated with 20 µM FITC-DTCPMI for 4 h. Cells were washed with Dulbecco's phosphate buffered saline, fixed with 4% (wt/vol) paraformaldehyde, finally incubated by DAPI to stain the cell nucleus. Imaged using an LSM 510 Zeiss Axiovert 200M (v4.0) confocal microscope. Images were analyzed using an LSM image browser. […]
μM) in serum-free media for 8 hours. The cells were lysed (20 mM Tris-HCl pH 8.0, 0.8 % SDS, 1 mM PMSF, 1 U mL-1 benzonase nuclease) and the crude lysates were clarified by brief centrifugation and total protein concentration was determined by using the Pierce BCA protein assay. Aliquots containing 5 μg of total protein were run on 4-12% Bis-Tris polyacrylamide gels (Invitrogen). Proteins were detected by chemiluminescence reagent (Perkin Elmer) using antibodies specific for p53 (Santa Cruz Biotechnology), MDM2 (Santa Cruz Biotechnology), p21 (Merck Millipore), and β-actin (Sigma-Aldrich). […]

cathepsin G = cathepsin G (Homo sapiens, UniProt P08311); details: 100 μM peptide, cell culture medium (RPMI 1640), 25 μg/ml cathepsin G, room temperature, RP-HPLC and ESI-MS
Sequence of cathepsin G (P08311 21-255, species assumed): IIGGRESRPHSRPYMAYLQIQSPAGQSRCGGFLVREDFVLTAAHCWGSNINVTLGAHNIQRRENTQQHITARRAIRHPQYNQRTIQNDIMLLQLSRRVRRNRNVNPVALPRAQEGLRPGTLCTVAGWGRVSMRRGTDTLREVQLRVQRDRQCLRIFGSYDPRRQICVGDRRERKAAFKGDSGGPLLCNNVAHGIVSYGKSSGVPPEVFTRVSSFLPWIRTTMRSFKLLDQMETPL
Procedure: and three independent experiments were performed.
Fluorescence polarization (FP).
as §5
Tecan Infinite M1000 plate reader. […]
additional incubation for 64 hours.
Circular Dichroism (CD) Spectroscopy. […]
as §1
of each peptide was calculated as reported previously. 12
Stability in GSH. […] RP-

## C=C(NC(C)=O)C(=O)N[C@@H](CO)C(=O)N[C@@H](Cc1ccccc1)C(=O)N[C@@H](C)C(=O)N[C@@H](CCCCNC(=S)S)C(=O)N[C@@H](Cc1ccc(O)cc1)C(=O)N[C@@H](Cc1c[nH]c2ccccc12)C(=O)N[C@@H](CC(N)=O)C(=O)N[C@@H](CC(C)C)C(=O)N[C@@H](CC(C)C)C(=O)N[C@@H](CO)C(=O)N1CCC[C@H]1C(N)=O [Ac-Dha-Ser-Phe-Ala-Lys-Tyr-Trp-Asn-Leu-Leu-Ser-Pro-NH2]
[1]
  ring closure, isolated yield: 37%

## C=C(NC(=O)[C@H](C)NC(=O)[C@H](Cc1ccccc1)NC(=O)[C@H](CO)NC(=O)[C@H](CCCCNC(=S)S)NC(C)=O)C(=O)N[C@@H](Cc1ccc(O)cc1)C(=O)N[C@@H](Cc1c[nH]c2ccccc12)C(=O)N[C@@H](CC(N)=O)C(=O)N[C@@H](CC(C)C)C(=O)N[C@@H](CC(C)C)C(=O)N[C@@H](CO)C(=O)N1CCC[C@H]1C(N)=O [Ac-Lys-Ser-Phe-Ala-Dha-Tyr-Trp-Asn-Leu-Leu-Ser-Pro-NH2]
[1]
  ring closure, isolated yield: 28%

## C=C(NC(=O)[C@@H](NC(C)=O)[C@@H](C)O)C(=O)N[C@@H](Cc1ccccc1)C(=O)N[C@@H](C)C(=O)N[C@@H](CCC(=O)O)C(=O)N[C@@H](CCCCNC(=S)S)C(=O)N[C@@H](Cc1c[nH]c2ccccc12)C(=O)N[C@@H](CC(N)=O)C(=O)N[C@@H](CC(C)C)C(=O)N[C@@H](CC(C)C)C(=O)N[C@@H](CO)C(=O)N1CCC[C@H]1C(N)=O [Ac-Thr-Dha-Phe-Ala-Glu-Lys-Trp-Asn-Leu-Leu-Ser-Pro-NH2]
[1]
  ring closure, isolated yield: 39%

## C=C(NC(=O)[C@H](CCC(=O)O)NC(=O)[C@H](C)NC(=O)[C@H](Cc1ccccc1)NC(=O)[C@H](CCCCNC(=S)S)NC(=O)[C@@H](NC(C)=O)[C@@H](C)O)C(=O)N[C@@H](Cc1c[nH]c2ccccc12)C(=O)N[C@@H](CC(N)=O)C(=O)N[C@@H](CC(C)C)C(=O)N[C@@H](CC(C)C)C(=O)N[C@@H](CO)C(=O)N1CCC[C@H]1C(N)=O [Ac-Thr-Lys-Phe-Ala-Glu-Dha-Trp-Asn-Leu-Leu-Ser-Pro-NH2]
[1]
  ring closure, isolated yield: 34%

## C=C(NC(=O)[C@H](C)NC(=O)[C@H](Cc1ccccc1)NC(=O)[C@H](CO)NC(=O)[C@@H](NC(C)=O)[C@@H](C)O)C(=O)N[C@@H](Cc1ccc(O)cc1)C(=O)N[C@@H](Cc1c[nH]c2ccccc12)C(=O)N[C@@H](CC(N)=O)C(=O)N[C@@H](CCCCNC(=S)S)C(=O)N[C@@H](CC(C)C)C(=O)N[C@@H](CO)C(=O)N1CCC[C@H]1C(N)=O [Ac-Thr-Ser-Phe-Ala-Dha-Tyr-Trp-Asn-Lys-Leu-Ser-Pro-NH2]
[1]
  ring closure, isolated yield: 27%

## C=C(NC(=O)[C@H](Cc1c[nH]c2ccccc12)NC(=O)[C@H](Cc1ccc(O)cc1)NC(=O)[C@H](CCC(=O)O)NC(=O)[C@H](C)NC(=O)[C@H](Cc1ccccc1)NC(=O)[C@H](CO)NC(=O)[C@@H](NC(C)=O)[C@@H](C)O)C(=O)N[C@@H](CC(C)C)C(=O)N[C@@H](CC(C)C)C(=O)N[C@@H](CO)C(=O)N[C@@H](CCCCNC(=S)S)C(N)=O [Ac-Thr-Ser-Phe-Ala-Glu-Tyr-Trp-Dha-Leu-Leu-Ser-Lys-NH2]
[2]
  ring closure, isolated yield: 38%

## C=C(NC(=O)[C@H](CO)NC(=O)[C@H](CC(C)C)NC(=O)[C@H](CC(C)C)NC(=O)[C@H](CCCCNC(=S)S)NC(=O)[C@H](Cc1c[nH]c2ccccc12)NC(=O)[C@H](Cc1ccc(O)cc1)NC(=O)[C@H](CCC(=O)O)NC(=O)[C@H](C)NC(=O)[C@H](Cc1ccccc1)NC(=O)[C@H](CO)NC(=O)[C@@H](NC(C)=O)[C@@H](C)O)C(N)=O [Ac-Thr-Ser-Phe-Ala-Glu-Tyr-Trp-Lys-Leu-Leu-Ser-Dha-NH2]
[2]
  ring closure, isolated yield: 45%

## C=C(NC(=O)[C@H](CC(N)=O)NC(=O)[C@H](Cc1c[nH]c2ccccc12)NC(=O)[C@H](Cc1ccc(O)cc1)NC(=O)[C@H](CCCCNC(=S)S)NC(=O)[C@H](C)NC(=O)[C@H](Cc1ccccc1)NC(=O)[C@H](CO)NC(=O)[C@@H](NC(C)=O)[C@@H](C)O)C(=O)N[C@@H](CC(C)C)C(=O)N[C@@H](CO)C(=O)N1CCC[C@H]1C(N)=O [Ac-Thr-Ser-Phe-Ala-Lys-Tyr-Trp-Asn-Dha-Leu-Ser-Pro-NH2]
[1]
  ring closure, isolated yield: 24%

## C=C(NC(=O)[C@H](Cc1ccccc1)NC(=O)[C@H](CO)NC(=O)[C@@H](NC(C)=O)[C@@H](C)O)C(=O)N[C@@H](CCC(=O)O)C(=O)N[C@@H](Cc1ccc(O)cc1)C(=O)N[C@@H](Cc1c[nH]c2ccccc12)C(=O)N[C@@H](CCCCNC(=S)S)C(=O)N[C@@H](CC(C)C)C(=O)N[C@@H](CC(C)C)C(=O)N[C@@H](CO)C(=O)N1CCC[C@H]1C(N)=O [Ac-Thr-Ser-Phe-Dha-Glu-Tyr-Trp-Lys-Leu-Leu-Ser-Pro-NH2]
[1]
  ring closure, isolated yield: 33%

## C=C(NC(=O)[C@H](Cc1c[nH]c2ccccc12)NC(=O)[C@H](Cc1ccc(O)cc1)NC(=O)[C@H](CCC(N)=O)NC(=O)[C@H](CCCCNC(=S)S)NC(=O)[C@H](Cc1ccccc1)NC(=O)[C@H](CO)NC(=O)[C@@H](NC(C)=O)[C@@H](C)O)C(=O)N[C@@H](CC(C)C)C(=O)N[C@@H](CC(C)C)C(=O)N[C@@H](CO)C(=O)N[C@@H](CCCNC(=N)N)C(N)=O [Ac-Thr-Ser-Phe-Lys-Gln-Tyr-Trp-Dha-Leu-Leu-Ser-Arg-NH2]
[1]
  ring closure, isolated yield: 46%

## C=C(NC(=O)[C@H](Cc1c[nH]c2ccccc12)NC(=O)[C@H](Cc1ccc(O)cc1)NC(=O)[C@H](CCC(=O)O)NC(=O)[C@H](CCCCNC(=S)S)NC(=O)[C@H](Cc1ccccc1)NC(=O)[C@H](CO)NC(=O)[C@@H](NC(C)=O)[C@@H](C)O)C(=O)N[C@@H](CC(C)C)C(=O)N[C@@H](CC(C)C)C(=O)N[C@@H](CO)C(=O)N1CCC[C@H]1C(N)=O [Ac-Thr-Ser-Phe-Lys-Glu-Tyr-Trp-Dha-Leu-Leu-Ser-Pro-NH2]
[1]
  ring closure, isolated yield: 42%

## CC(=O)N[C@H](C(=O)N[C@@H](CO)C(=O)N[C@@H](Cc1ccccc1)C(=O)N[C@@H](CCCCN)C(=O)N[C@@H](CCC(N)=O)C(=O)N[C@@H](Cc1ccc(O)cc1)C(=O)N[C@@H](Cc1c[nH]c2ccccc12)C(=O)N[C@@H](CS)C(=O)N[C@@H](CC(C)C)C(=O)N[C@@H](CC(C)C)C(=O)N[C@@H](CO)C(=O)N[C@@H](CCCNC(=N)N)C(N)=O)[C@@H](C)O [^DTCPMI Ctrl.]
Circular dichroism
  helicity: 16.6%
[3]
  α-Helix (%): 16.6%
HCT116 p53+/+ cells
  anti-proliferative activity against HCT116 p53+/+: no anti-proliferative activity
HCT116 p53-/- cells
  anti-proliferative activity against HCT116 p53-/-: no anti-proliferative activity

## CC(=O)N[C@H](C(=O)N[C@@H](CO)C(=O)N[C@@H](Cc1ccccc1)C(=O)N[C@H]1CCCCNC(=S)SC[C@@H](C(=O)N[C@@H](CC(C)C)C(=O)N[C@@H](CC(C)C)C(=O)N[C@@H](CO)C(=O)N[C@@H](CCCNC(=N)N)C(N)=O)NC(=O)[C@H](Cc2c[nH]c3ccccc23)NC(=O)[C@H](Cc2ccc(O)cc2)NC(=O)[C@H](CCC(N)=O)NC1=O)[C@@H](C)O [^DTCPMI]
Circular dichroism
  helicity: 62.2%
HCT116 cells
  intracellular localization (confocal microscopy): diffused intracellular localization

## Ac-TSFAEYWNLLSP-NH2 [PMI-0]
[3]
  α-Helix (%): 9.77%
Cathepsin G
  time to full degradation by cathepsin G: ≤ 30 min
